As usually defined, the IC50 is the concentration that inhibits the measured activity by half. A lower IC50 goes with inhibition by little substance.

IC50 data for 18 molecules are collected here from patent US12281122B1, “PI3K inhibitors” (Cogent Biosciences, Inc., priority 2023, dated 2025).

The subject of assay [1] is SKBR3 (PI3Kα-Wild Type) cell line. The assay is described as follows: HTRF phospho-AKT(S473) cell assay in SKBR3 cells. It counts as cell-based, human. Put shortly: (§1)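 pAKT(S473) in lysates read by HTRF after a 2 h, 37 °C compound exposure (12-point 1:3 series, max 0.5% DMSO). SKBR3 (wild type, top 10 μM) received 70 ng/ml PDGF-BB during the final 15 min; T47D (H1047R, top 5 μM) was unstimulated. IC50 values derived from the dose-response.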
(Time-resolved FRET reads energy transfer from a long-lived donor to a nearby acceptor.)

The test system of assay [2] is T47D (PI3Kα-H1047R) cell line. The assay is described as follows: HTRF phospho-AKT(S473) cell assay in T47D cells. It counts as cell-based, human. The essentials:
as §1

Where [3] appears, read: Homo sapiens, SK-BR-3; SKBR3 (PI3Kα-Wild Type) cells, HTRF phospho-AKT(S473), 2 hours compound incubation, PDGF-BB stimulated.
[4] abbreviates: Homo sapiens; T47D (PI3Kα-H1047R) cells, HTRF phospho-AKT(S473), 2 hours compound incubation.
[5] abbreviates: Homo sapiens, SK-BR-3; HTRF phospho-AKT(S473), SKBR3 (PI3Kα-Wild Type) cells, 2 hours compound incubation, PDGF-BB stimulated.
Setting [6] is: Homo sapiens; HTRF phospho-AKT(S473), T47D (PI3Kα-H1047R) cells, 2 hours compound incubation.

In the case of `Cc1cc([C@@H](C)Nc2ccc(Cl)nc2C(=O)NS(C)(=O)=O)c2nc(N3C[C@@H]4C[C@H]3C[C@@H]4c3ccn(C)n3)n(C)c(=O)c2c1` (relative stereo) [Compound 356, 6-chloro-3-(((R)-1-(3,6-dimethyl-2-((1R*,4S*,5R*)-5-(1-methyl-1H-pyrazol-3-yl)-2-azabicyclo[2.2.1]heptan-2-yl)-4-oxo-3,4-dihydroquinazolin-8-yl)ethyl)amino)-N-(methylsulfonyl) picolinamide], the half-inhibitory concentration (IC50) was 1000 to 5000 nM in assay [1] (setting [3]) and below 250 nM in assay [2] (setting [4]).
Regarding `CO[C@H]1CC[C@@H](n2ncc(-c3nc4c([C@@H](C)Nc5ccc(Cl)nc5C(=O)NS(C)(=O)=O)cc(C)cc4c(=O)n3C)c2C)CC1` (relative stereo) [Compound 380, 6-chloro-3-(((R)-1-(2-(1-((1S*,4S*)-4-methoxycyclohexyl)-5-methyl-1H-pyrazol-4-yl)-3,6-dimethyl-4-oxo-3,4-dihydroquinazolin-8-yl)ethyl)amino)-N-(methylsulfonyl) picolinamide], the IC50 in assay [1] (setting [3]) is at least 5000 nM; in assay [2] (setting [4]), below 250 nM.
For the molecule `Cc1cc([C@@H](C)Nc2ccc(Cl)nc2C(=O)NS(C)(=O)=O)c2nc(N3C[C@H]4C[C@@H]3C[C@@H]4c3nn(C)cc3F)n(C)c(=O)c2c1` (relative stereo) [Compound 443, 6-chloro-3-(((R)-1-(2-((1R*,4S*,5S*)-5-(4-fluoro-1-methyl-1H-pyrazol-3-yl)-2-azabicyclo[2.2.1]heptan-2-yl)-3,6-dimethyl-4-oxo-3,4-dihydroquinazolin-8-yl)ethyl)amino)-N-(methylsulfonyl) picolinamide], the values for the IC50 in assay [1] (setting [5]) and in assay [2] (setting [6]) were 1000 to 5000 nM and 250 to 500 nM, respectively.
As to `Cc1cc([C@@H](C)Nc2ccc(Cl)nc2C(=O)NS(C)(=O)=O)c2nc(N3C[C@@H]4C[C@H]3C[C@@H]4c3nn(C)cc3F)n(C)c(=O)c2c1` (relative stereo) [Compound 444, 6-chloro-3-(((R)-1-(2-((1R*,4S*,5R*)-5-(4-fluoro-1-methyl-1H-pyrazol-3-yl)-2-azabicyclo[2.2.1]heptan-2-yl)-3,6-dimethyl-4-oxo-3,4-dihydroquinazolin-8-yl)ethyl)amino)-N-(methylsulfonyl) picolinamide], the IC50 in assay [1] (setting [5]) was at least 5000 nM; in assay [2] (setting [6]), 250 to 500 nM.
Taken in the same sequence, the figures for `Cc1cc([C@@H](C)Nc2ccc(Cl)nc2C(=O)NS(C)(=O)=O)c2nc(N3CCC[C@H](c4cnc(C)cn4)C3)n(C)c(=O)c2c1` (relative stereo) [Compound 585, 6-chloro-3-(((R)-1-(3,6-dimethyl-2-((R*)-3-(5-methylpyrazin-2-yl)piperidin-1-yl)-4-oxo-3,4-dihydroquinazolin-8-yl)ethyl)amino)-N-(methylsulfonyl) picolinamide] were at least 5000 nM and 250 to 500 nM.
Taken in the same sequence, the figures for `Cc1cc([C@@H](C)Nc2ccc(Cl)nc2C(=O)NS(C)(=O)=O)c2nc(N3CCC[C@@H](c4cnc(C)cn4)C3)n(C)c(=O)c2c1` (relative stereo) [Compound 586, 6-chloro-3-(((R)-1-(3,6-dimethyl-2-((R*)-3-(5-methylpyrazin-2-yl)piperidin-1-yl)-4-oxo-3,4-dihydroquinazolin-8-yl)ethyl)amino)-N-(methylsulfonyl) picolinamide] were at least 5000 nM and 250 to 500 nM.
The like results for `Cc1cc([C@@H](C)Nc2ccc(Cl)nc2C(=O)NS(C)(=O)=O)c2nc(N3CCC[C@@H](c4ncc(Cl)cn4)C3)n(C)c(=O)c2c1` (relative stereo) [Compound 588, 6-chloro-3-(((R)-1-(2-((R*)-3-(5-chloropyrimidin-2-yl)piperidin-1-yl)-3,6-dimethyl-4-oxo-3,4-dihydroquinazolin-8-yl)ethyl)amino)-N-(methylsulfonyl) picolinamide] were, in that order, at least 5000 nM and 1000 to 5000 nM.
On to `Cc1cc([C@@H](C)Nc2ccc(Cl)nc2C(=O)NS(C)(=O)=O)c2nc(N3CC[C@H](c4ccnc(C)n4)C3)n(C)c(=O)c2c1` (relative stereo) [Compound 599, 6-chloro-3-(((R)-1-(3,6-dimethyl-2-((R*)-3-(2-methylpyrimidin-4-yl)pyrrolidin-1-yl)-4-oxo-3,4-dihydroquinazolin-8-yl)ethyl)amino)-N-(methylsulfonyl) picolinamide], for which the figures for the IC50 in assay [1] (setting [5]) and in assay [2] (setting [6]) were at least 5000 nM and 250 to 500 nM, respectively.
The like results for `Cc1cc([C@@H](C)Nc2ccc(Cl)nc2C(=O)NS(C)(=O)=O)c2nc(N3CC[C@@H](c4ccnc(C)n4)C3)n(C)c(=O)c2c1` (relative stereo) [Compound 600, 6-chloro-3-(((R)-1-(3,6-dimethyl-2-((R*)-3-(2-methylpyrimidin-4-yl)pyrrolidin-1-yl)-4-oxo-3,4-dihydroquinazolin-8-yl)ethyl)amino)-N-(methylsulfonyl) picolinamide] were, in that order, 1000 to 5000 nM and 250 to 500 nM.
`Cc1cc([C@@H](C)Nc2ccc(Cl)nc2C(=O)NS(C)(=O)=O)c2nc(N3CCC[C@@H](c4cnc(C)c(C#N)c4)C3)n(C)c(=O)c2c1` (relative stereo) [Compound 614, 6-chloro-3-(((R)-1-(2-((R*)-3-(5-cyano-6-methylpyridin-3-yl)piperidin-1-yl)-3,6-dimethyl-4-oxo-3,4-dihydroquinazolin-8-yl)ethyl)amino)-N-(methylsulfonyl) picolinamide]: the IC50 was at least 5000 nM in assay [1] (setting [5]) and 500 to 1000 nM in assay [2] (setting [6]).
The like results for `Cc1cc([C@@H](C)Nc2ccc(Cl)nc2C(=O)NS(C)(=O)=O)c2nc(N3CCC[C@H](c4cnc(C)c(C#N)c4)C3)n(C)c(=O)c2c1` (relative stereo) [Compound 615, 6-chloro-3-(((R)-1-(2-((R*)-3-(5-cyano-6-methylpyridin-3-yl)piperidin-1-yl)-3,6-dimethyl-4-oxo-3,4-dihydroquinazolin-8-yl)ethyl)amino)-N-(methylsulfonyl) picolinamide] were, in that order, 1000 to 5000 nM and 250 to 500 nM.
In the case of `Cc1cc([C@@H](C)Nc2ccc(Cl)nc2C(=O)NS(C)(=O)=O)c2nc(N3CCC[C@@H](c4cnccn4)C3)n(C)c(=O)c2c1` (relative stereo) [Compound 618, 6-chloro-3-(((R)-1-(3,6-dimethyl-4-oxo-2-((R*)-3-(pyrazin-2-yl)piperidin-1-yl)-3,4-dihydroquinazolin-8-yl)ethyl)amino)-N-(methylsulfonyl) picolinamide], the figures for the concentration for half-maximal inhibition (IC50) in assay [1] (setting [5]) and in assay [2] (setting [6]) were 1000 to 5000 nM and 250 to 500 nM, respectively.
As to `Cc1cc([C@@H](C)Nc2ccc(Cl)nc2C(=O)NS(C)(=O)=O)c2nc(N3CCC[C@H](c4cnccn4)C3)n(C)c(=O)c2c1` (relative stereo) [Compound 619, 6-chloro-3-(((R)-1-(3,6-dimethyl-4-oxo-2-((R*)-3-(pyrazin-2-yl)piperidin-1-yl)-3,4-dihydroquinazolin-8-yl)ethyl)amino)-N-(methylsulfonyl) picolinamide], the IC50 in assay [1] (setting [5]) was at least 5000 nM; in assay [2] (setting [6]), below 250 nM.
With `Cc1cnc([C@H]2CCCN(c3nc4c([C@@H](C)Nc5ccc(Cl)nc5C(=O)NS(C)(=O)=O)cc(C)cc4c(=O)n3C)C2)nc1` (relative stereo) [Compound 621, 6-chloro-3-(((R)-1-(3,6-dimethyl-2-((R*)-3-(5-methylpyrimidin-2-yl)piperidin-1-yl)-4-oxo-3,4-dihydroquinazolin-8-yl)ethyl)amino)-N-(methylsulfonyl) picolinamide], the half-inhibitory concentration (IC50) in assay [1] (setting [5]) was at least 5000 nM; in assay [2] (setting [6]) it was 500 to 1000 nM.
Regarding `Cc1cnc([C@@H]2CCCN(c3nc4c([C@@H](C)Nc5ccc(Cl)nc5C(=O)NS(C)(=O)=O)cc(C)cc4c(=O)n3C)C2)nc1` (relative stereo) [Compound 625, 6-chloro-3-(((R)-1-(3,6-dimethyl-2-((R*)-3-(5-methylpyrimidin-2-yl)piperidin-1-yl)-4-oxo-3,4-dihydroquinazolin-8-yl)ethyl)amino)-N-(methylsulfonyl) picolinamide], the concentration for half-maximal inhibition (IC50) in assay [1] (setting [5]) is at least 5000 nM; in assay [2] (setting [6]), 250 to 500 nM.
Taken in the same sequence, the figures for `Cc1cc([C@@H](C)Nc2ccc(Cl)nc2C(=O)NS(C)(=O)=O)c2nc(N3CCC[C@@H](c4cnc(C)nc4)C3)n(C)c(=O)c2c1` (relative stereo) [Compound 645, 6-chloro-3-(((R)-1-(3,6-dimethyl-2-((R*)-3-(2-methylpyrimidin-5-yl)piperidin-1-yl)-4-oxo-3,4-dihydroquinazolin-8-yl)ethyl)amino)-N-(methylsulfonyl) picolinamide] were at least 5000 nM and 500 to 1000 nM.
On to `Cc1cc([C@@H](C)Nc2ccc(Cl)nc2C(=O)NS(C)(=O)=O)c2nc(N3CCC[C@H](c4cnc(C)nc4)C3)n(C)c(=O)c2c1` (relative stereo) [Compound 646, 6-chloro-3-(((R)-1-(3,6-dimethyl-2-((R*)-3-(2-methylpyrimidin-5-yl)piperidin-1-yl)-4-oxo-3,4-dihydroquinazolin-8-yl)ethyl)amino)-N-(methylsulfonyl) picolinamide], for which the IC50 in assay [1] (setting [5]) is at least 5000 nM; in assay [2] (setting [6]), below 250 nM.
As for `Cc1cc([C@@H](C)Nc2ccc(Cl)nc2C(=O)NS(C)(=O)=O)c2nc(N3CCC[C@@H](c4nccc(C)n4)C3)n(C)c(=O)c2c1` (relative stereo) [Compound 647, 6-chloro-3-(((R)-1-(3,6-dimethyl-2-((R*)-3-(4-methylpyrimidin-2-yl)piperidin-1-yl)-4-oxo-3,4-dihydroquinazolin-8-yl)ethyl)amino)-N-(methylsulfonyl) picolinamide], the results for the IC50 in assay [1] (setting [5]) and in assay [2] (setting [6]) were at least 5000 nM and 250 to 500 nM, respectively.
